Entries after “also recorded” stand apart in the source; their conditions may differ. Where two headings read alike, the source gives them in different places.
Tests used:
[1] = cited from earlier work; for Optimal Dose and/or Minimally Effective Dose / EPS risk: dose of augmented risk: clinical use
[2] = tested on: DBA/2J mice; test: Prepulse inhibition (PPI) of startle in DBA/2 mice; format: in vivo, mouse; details: for dose at which efficacy was observed in DBA2 mouse PPI: i.p., antipsychotic alone, FIG. 1
Description: Dysfunctions of sensory gating and information processing have been putatively associated with clinical features such as perpetual aberrations, hallucinations and distraction and been considered as potential precursors of sensory overload, cognitive fragmentation and disorganization. Among the physiological measures, one approach has involved the startle reflex with the prepulse inhibition (PPI) paradigm. […] PPI refers to a reduction in the acoustic startle reflex to a loud noise when the loud noise is preceded by a weak auditory stimulus. At short lead intervals, this has the effect of markedly reducing or gating the amplitude of the startle response and increasing its latency. Disruption of PPI occurs with agonists of dopamine and serotonin, and with glutamate/N-methyl D aspartate (NMDA) receptor antagonists, or can be induced by genetic (e.g., DBA2 mouse strain) and experimental manipulations (e.g., rearing rats in isolation, neurotoxic lesions, or other methods). […] (Olivier B., et al., Psychopharmacology (2001) vol. 156:284-290; Ouagazzal A-M., Psychopharmacology (2001) vol. 156:273-283; Simosky J. K., Psychopharmacology (2003) vol. 165:386-396). To accomplish the study, the following materials and methods were used.
Male DBA/2J mice (Jackson Laboratories AX9 facility, Bar Harbor, Me., USA) at age 6-8 weeks old were used for all investigations.
Startle response and PPI were measured using startle chambers from Hamilton Kinder (Poway, Calif., USA). Each chamber contained a plexiglas rectangle with an adjustable ceiling housed in a ventilated, sound-attenuated cubicle. The ceiling was adjusted on an individual (animal by animal) basis to allow for adequate headroom but no rears or extensive locomotion. The chamber was placed over an anchor plate attached to a piezoelectric disk to transduce startle responses to a computer. A loudspeaker located in each chamber delivered the background noise (65 dB), and the acoustic stimuli. A constant white noise was maintained in the experimental room for the duration of the experiment by a white noise generator (Radioshack, USA). Each session was initiated with a 5-minute acclimation period followed by four successive 120 dB, 40 ms trials. These trials were not included in the main analysis, but are referred to as baseline responses. Animals were then presented with 5 different trial types: startle pulse (120 dB, 40), or prepulse stimulus of one of three sound levels (70, 75, or 80 dB) for 20 ms, followed 100 ms later by an acoustic startle (120 dB) for 40 ms. A total of 12 trials under each condition were delivered in a random sequence and all trials were separated by a variable inter-trial interval of 5-25 s. Finally, this sequence ended with the presentation of four 120 dB, 40 ms sound bursts (not included in the main analyses, but included in the baseline or habituation analyses). The animals were injected with the test compounds 30 minutes before the start of the trials. In the startle alone trials, the basic auditory startle, or startle response was measured, and in the prepulse plus startle trials, the levels of PPI was calculated as a percentage score for each acoustic prepulse trial type using (typically) the formula: […].
Data were first analyzed using a two-way repeated measures analysis of variance (ANOVA) with two independent factors. If there was a significant interaction of both factors, subsequent post hoc one-way ANOVAs were performed using each treatment combination as an independent group. All post hoc significance was determined using Fishers protected least significant difference test. (p<0.05 was regarded as significant).
Startle response and PPI were measured using startle chambers from Hamilton Kinder (Poway, Calif., USA). Each chamber contained a plexiglas rectangle with an adjustable ceiling housed in a ventilated, sound-attenuated cubicle. […]

[3] = tested on: Sprague Dawley rats; test: Catalepsy bar test in rats (EPS predictor)
Protocol: One of the adverse effects of antipsychotic medications is extrapyramidal movement disorder syndrome attributed to blockade of the dopamine D2 receptors. Extrapyramidal movement disorder can be predicted by the cataleptic response elicited by an antipsychotic in a rodent. To assess whether Compound 1 alone evoked cataleptic responses or interfered with the cataleptic effect of the antipsychotic, the following set of studies were conducted. The materials and methods used to accomplish the study follow.
Male Sprague Dawley rats (CRL: CD (SD), Charles River Laboratories, Omaha, Nebr.) weighing 300-325 g were used for the experiment.
Rats were handled and habituated to the testing room before starting. […] The degree of catalepsy was measured by gently placing both forepaws over a metal bar (1.1 cm. diameter suspended 8 cm. above the table top). The time in seconds until the rat took both paws off the bar was recorded, with a maximum cut-off of 300 seconds. […] Alternately, any catalepsy trial time that was greater than 15 seconds (up to 300 seconds) was recorded.
Rats were handled and habituated to the testing room before starting. […] The degree of catalepsy was measured by gently placing both forepaws over a metal bar (1.1 cm. diameter suspended 8 cm. above the table top). The time in seconds until the rat took both paws off the bar was recorded, with a maximum cut-off of 300 seconds. […]

For `O=C1CCc2ccc(OCCCCN3CCN(c4cccc(Cl)c4Cl)CC3)cc2N1` [Arpiprazole], the “Optimal Dose and/or Minimally Effective Dose” value [1] is listed as 15 mg/day.

In the case of `CN1CCN(C2=Nc3cc(Cl)ccc3Nc3ccccc32)CC1` [Clozapine, 8-chloro-11-(4-methyl-1-piperazinyl)-5H-dibenzo[b,e][1,4]diazepine], the “dose at which efficacy was observed in DBA2 mouse PPI” value [2] is given as 3 mg/kg, the “Optimal Dose and/or Minimally Effective Dose” value [1] is given as 300 to 400 mg/day and the “Dose of Increased Side Effect Risk” value ([1]; low risk for seizures) is given as less than 300 mg/day. For the same molecule, the “Dose of Increased Side Effect Risk” value ([1]; moderate risk for seizures) was 300 to 599 mg/day.

In the case of `Cc1cc2c(s1)Nc1ccccc1N=C2N1CCN(C)CC1` [Olanzapine, 2-methyl-4-(4-methyl-1-piperazinyl)-10H-thieno[2,3-b][1,5]benzodiazepine], the “EPS risk: dose of augmented risk” value [1] is given as “risk >7.5 mg/kg/day” and the “Optimal Dose and/or Minimally Effective Dose” value [1] is given as 10 to 20 mg/day.

In the case of `O=C(CCCN1CCC(O)(c2ccc(Cl)cc2)CC1)c1ccc(F)cc1` [Haloperidol, 4-(4-[4-chlorophenyl]-4-hydroxy-1-piperidinyl)-1-(4-fluorophenyl)-1-butanone], the “dose at which efficacy was observed in DBA2 mouse PPI” value [2] is given as 3 mg/kg, the “Optimal Dose and/or Minimally Effective Dose” value [1] is given as 2 to 5 mg/day and the “Dose of Increased Side Effect Risk” value ([1]; risk for EPS) is given as roughly 3 mg.

In the case of `O=C1Cc2cc(CCN3CCN(c4nsc5ccccc45)CC3)c(Cl)cc2N1` [Ziprasidone, 5-[2-[4-(1,2-benzoisothiazol-3-yl)-1-piperazinyl]ethyl]-6-chloro-1,3-dihydro-2H-indol-2-one], the “Dose of Increased Side Effect Risk” value ([1]; EPS risk) is given as greater than 80 mg/day, the “EPS risk: dose of augmented risk” value [1] is given as “risk >80 mg/kg/day” and the “Optimal Dose and/or Minimally Effective Dose” value [1] is given as 120 mg/day.

In the case of `c1cc2cc(-c3ccc(O[C@H]4CN5CCC4CC5)nn3)ccc2[nH]1` [Compound 1], the “effect on PPI in combination with maximally efficacious haloperidol” value ([2]; Compound 1 0.04-4.0 mg/kg i.p. 10 minutes prior to maximally efficacious dose of haloperidol, FIG. 5) is reported as “significant potentiation of effects; also recorded: does not interfere with the efficacy of haloperidol”, the “effect on PPI in combination with sub efficacious risperidone” value (“effect … with sub efficacious risperidone” below) ([2]; Compound 1 (0.04 mg/kg) + risperidone 0.1 mg/kg, FIG. 2) is reported as “a maximally efficacious response is achieved; also recorded: boosting the effect of a sub efficacious dose of risperidone” and the “effect on PPI in combination with sub efficacious haloperidol” value ([2]; Compound 1 (0.04-4.0 mg/kg) + haloperidol 0.3 mg/kg, FIG. 4) is reported as “more efficacious; also recorded: boosting the effect of a sub efficacious dose of haloperidol”. The “effect on PPI, alone” value ([2]; Compound 1 alone at 0.04 mg/kg, FIG. 2) was “does not have an effect”.

In the case of `Cc1nc2n(c(=O)c1CCN1CCC(c3noc4cc(F)ccc34)CC1)CCCC2` [Risperidone, 3-[2-[4-(6-fluoro-1,2-benzisoxazol-3-yl)-1-piperidinyl]ethyl]-6,7,8,9-tetrahydro-2-methyl-4H-pyrido[1,2-a]pyrimidin-4-one], the “Dose of Increased Side Effect Risk” value ([1]; EPS risk) is listed as “≧6 mg/day”, the “EPS risk: dose of augmented risk” value [1] is listed as “risk >6 mg/kg/day” and the “Optimal Dose and/or Minimally Effective Dose” value [1] is listed as 4 to 6 mg/day.

In the case of `O=C(N[C@H]1CN2CCC1CC2)c1ccc(Cl)cc1.O=C(O)/C=C/C(=O)O` [Compound 3, N-(3R)-1-azabicyclo[2,2,2]oct-3-yl-4-chlorobenzamide fumarate], the “effect on risperidone-induced catalepsy” value ([3]; Compound 3 3.0 mg/kg i.p. + risperidone 2.5 mg/kg i.p., FIG. 12) is reported as “did not significantly alter cataleptic behavior of risperidone”, the “effect … with sub efficacious risperidone” value ([2]; Compound 3 1.0-10.0 mg/kg + risperidone 0.1 mg/kg, FIG. 9, fumarate) is reported as “attained maximal efficacy; also recorded: boosting the effect of a sub efficacious dose of risperidone” and the “effect on PPI, alone” value ([2]; Compound 3 alone 1.0-10.0 mg/kg, FIG. 8) is reported as “no effect”.

For `c1ccc(-c2ccc(N3CC4CNCC4C3)nn2)cc1` (centres unmarked) [Compound 2, 2-(6-phenylpyridazin-3-yl)octahydropyrrolo[3,4-c]pyrrole], the “effect on risperidone-induced catalepsy” value ([3]; Compound 2 4.0 mg/kg i.p. + risperidone 2.5 mg/kg i.p., FIG. 11) was “did not significantly alter cataleptic behavior of risperidone”, the “effect … with sub efficacious risperidone” value ([2]; Compound 2 0.4-4.0 mg/kg + risperidone 0.1 mg/kg, FIG. 7) was “attained maximal efficacy; also recorded: potentiates the efficacy of risperidone” and the “effect on PPI, alone” value ([2]; Compound 2 alone 0.04-4.0 mg/kg, FIG. 6) was “no effect”.
